“And” between values parts separate entries of the source, which are not always exact repeats. Equal entries are not always repeated.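 Where inhibition never reached the appropriate level, the endpoint shown equals the highest concentration tested. Otherwise, values were interpolated linearly from a five-concentration, 48-hour dose response in 96-well plates. TGI denotes the concentration required for complete inhibition of growth.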 Some results are limits rather than exact numbers.

Test systems include UACC-62 melanoma; UO-31 renal; SNB-75 CNS; NCI-H226 lung; A498 renal; OVCAR-8 ovarian; SF-295 CNS; BT-549 breast; CCRF-CEM leukemia; OVCAR-3 ovarian; MALME-3M melanoma; ACHN renal; NCI/ADR-RES ovarian; NCI-H522 lung; HCT-15 colon; A549 NSCLC; 786-0 renal; COLO 205 colon; LOX IMVI melanoma; MDA-MB-435.
Holding throughout (assay): growth of human tumour cells (NCI), 48 h

As for `CC(=O)N1c2ccccc2[C@H]2CCc3c([nH]c4ccccc34)[C@H]21`, the TGI in the experiment on UACC-62 melanoma was 27.7 µM; with UO-31 renal it was 67.6 µM; in the experiment with SNB-75 CNS, 63 µM; in the experiment on NCI-H226 lung, 36.7 µM; in the experiment with A498 renal it was 36.2 µM; with OVCAR-8 ovarian, more than 100 µM. In addition, the TGI in the experiment on SF-295 CNS is 74.4 µM; with BT-549 breast, 30 µM; with CCRF-CEM leukemia it was 40.2 µM; with OVCAR-3 ovarian it was 31.6 µM; with MALME-3M melanoma it was 30.7 µM; in the experiment on ACHN renal, more than 100 µM. Also, the TGI was more than 100 µM in the experiment with NCI/ADR-RES ovarian; 51.3 µM in the experiment on NCI-H522 lung; 31.6 µM in the experiment on HCT-15 colon; 67.3 µM in the experiment on A549 NSCLC; 32.2 µM in the experiment with 786-0 renal; 27.6 µM with COLO 205 colon. Further, the figures for the TGI with LOX IMVI melanoma and with MDA-MB-435 were 31.8 µM and 42.5 µM, respectively.
Consider `C=C(Cl)C(Cl)(CBr)CCC(Br)C(C)(C)Cl` (stereo not given), for which the TGI in the experiment with UACC-62 melanoma was 12 µM and 15.2 µM and 2.68 µM; with UO-31 renal, 3.71 µM and 3.73 µM and 11.3 µM; in the experiment with SNB-75 CNS, 7.12 µM and 1.69 µM and 6.97 µM; in the experiment with NCI-H226 lung, 38.4 µM and 32.5 µM and 37.9 µM; in the experiment with A498 renal, 4.03 µM and 4.02 µM and 6.05 µM; in the experiment on OVCAR-8 ovarian it was 5.15 µM and 2.59 µM and 17 µM. The TGI in the experiment with SF-295 CNS was 3.53 µM and 3.04 µM and 3.7 µM; with BT-549 breast it was 7.21 µM and 15.7 µM and 9.1 µM; with CCRF-CEM leukemia it was 45.6 µM and 35 µM and > 100 µM; in the experiment with OVCAR-3 ovarian, 3.09 µM and 1.96 µM and 4.78 µM; with MALME-3M melanoma, 31.9 µM and 21 µM and 30.8 µM; in the experiment with ACHN renal, 2.62 µM and 2.63 µM and 3.13 µM. Besides, the TGI is 7.18 µM and 4.48 µM and 33.2 µM in the experiment on NCI/ADR-RES ovarian; 34.9 µM and 27.1 µM and 28.9 µM in the experiment on NCI-H522 lung; 10.6 µM and 6.12 µM and 27.8 µM in the experiment on HCT-15 colon; 9.99 µM and 7.54 µM and 16.7 µM with A549 NSCLC; 0.9 µM and 1.03 µM and 3.78 µM in the experiment on 786-0 renal; 4.02 µM and 7.41 µM and 31.6 µM with COLO 205 colon. Also, the TGI with LOX IMVI melanoma is 12.4 µM and 29.7 µM and 33.6 µM; in the experiment on MDA-MB-435, 6.56 µM and 4.63 µM and 23.4 µM.
As for `COC(=O)c1ccccc1/C=C1\Cc2ccc3ccccc3c2C1C` (stereo not given), the TGI with UACC-62 melanoma, with UO-31 renal, in the experiment with SNB-75 CNS, in the experiment on NCI-H226 lung, in the experiment with A498 renal and in the experiment with OVCAR-8 ovarian was more than 100 µM in each case. The TGI with SF-295 CNS, in the experiment on BT-549 breast, with CCRF-CEM leukemia, in the experiment with OVCAR-3 ovarian, in the experiment on MALME-3M melanoma and with ACHN renal was more than 100 µM each time. Moreover, the TGI in the experiment with NCI/ADR-RES ovarian, in the experiment with NCI-H522 lung, in the experiment on HCT-15 colon, in the experiment with A549 NSCLC, in the experiment on 786-0 renal and with COLO 205 colon was more than 100 µM throughout. Also, the TGI in the experiment on LOX IMVI melanoma and in the experiment with MDA-MB-435 was more than 100 µM in each case.
Turning to `O=S(=O)(O)c1ccc2c(N=Nc3c(O)ccc4ccccc34)cccc2c1`, the TGI in the experiment with UACC-62 melanoma, in the experiment with UO-31 renal, in the experiment on SNB-75 CNS, in the experiment on NCI-H226 lung, in the experiment with A498 renal and in the experiment with OVCAR-8 ovarian was more than 100 µM throughout. Moreover, the TGI in the experiment with SF-295 CNS, with BT-549 breast, with CCRF-CEM leukemia, in the experiment with OVCAR-3 ovarian, in the experiment on MALME-3M melanoma and with ACHN renal was more than 100 µM each time. The TGI in the experiment with NCI/ADR-RES ovarian, with NCI-H522 lung, with HCT-15 colon, in the experiment with A549 NSCLC, in the experiment with 786-0 renal and in the experiment on COLO 205 colon was more than 100 µM in each case. Besides, the TGI with LOX IMVI melanoma and in the experiment on MDA-MB-435 was more than 100 µM throughout.
`CCCCCC(/C=C/[C@@H]1[C@@H](C(O)CCCCCC(=O)OC)C(=O)C[C@H]1O[Si](C)(C)C(C)(C)C)OCOCCOC` (stereo not given in full): the TGI with UACC-62 melanoma stood at 27.5 µM; in the experiment on UO-31 renal, 28.9 µM; in the experiment on SNB-75 CNS, 22.2 µM; with NCI-H226 lung it was 34.9 µM; with A498 renal, 42.7 µM; in the experiment with OVCAR-8 ovarian, 42.8 µM. Also, the TGI in the experiment with SF-295 CNS was 32.6 µM; in the experiment with BT-549 breast, 24.8 µM; in the experiment with CCRF-CEM leukemia, more than 24.5 µM; with OVCAR-3 ovarian, 28.1 µM; in the experiment on MALME-3M melanoma, 30.6 µM; in the experiment on ACHN renal, 28.6 µM. The TGI with NCI/ADR-RES ovarian was 51.8 µM; in the experiment on NCI-H522 lung it was 14.5 µM; with HCT-15 colon, 27.5 µM; in the experiment with A549 NSCLC, more than 68.2 µM; in the experiment on 786-0 renal it was 31.6 µM; in the experiment with COLO 205 colon it was 49.6 µM. In addition, the TGI is 14.5 µM in the experiment on LOX IMVI melanoma and 27.9 µM in the experiment on MDA-MB-435.
With `CCOC(=O)C1=C(C)N(CC(C)C)C2(O)C(OC)CC(=O)C3C(=O)N(c4ccccc4)C(=O)C132` (stereo not given), the TGI in the experiment with UACC-62 melanoma was 47.6 µM; with UO-31 renal, 39.2 µM; in the experiment with SNB-75 CNS it was 75.4 µM; in the experiment on NCI-H226 lung, 57.7 µM; in the experiment with A498 renal, more than 100 µM; in the experiment with OVCAR-8 ovarian, 59.6 µM. Further, the TGI is more than 100 µM in the experiment with SF-295 CNS; more than 100 µM in the experiment on BT-549 breast; more than 100 µM with CCRF-CEM leukemia; more than 100 µM in the experiment on OVCAR-3 ovarian; 96.7 µM in the experiment with MALME-3M melanoma; 72 µM in the experiment on ACHN renal. For the same molecule, the TGI is more than 100 µM with NCI/ADR-RES ovarian; 34.5 µM in the experiment with NCI-H522 lung; more than 100 µM with HCT-15 colon; more than 100 µM in the experiment on A549 NSCLC; more than 100 µM in the experiment on 786-0 renal; more than 100 µM in the experiment on COLO 205 colon. For the same molecule, the TGI in the experiment with LOX IMVI melanoma and in the experiment on MDA-MB-435 was more than 100 µM throughout.
Take `COc1cccc(Nc2nc(NS(=O)(=O)c3cc(C)c(Cl)cc3S)n[nH]2)c1`: the TGI in the experiment with UACC-62 melanoma, with UO-31 renal, in the experiment on SNB-75 CNS, with NCI-H226 lung, in the experiment on A498 renal and with OVCAR-8 ovarian was more than 100 µM throughout. The TGI in the experiment with SF-295 CNS, in the experiment on BT-549 breast, in the experiment on CCRF-CEM leukemia, in the experiment on OVCAR-3 ovarian, in the experiment on MALME-3M melanoma and in the experiment with ACHN renal was more than 100 µM in each case. The TGI with NCI/ADR-RES ovarian, in the experiment on NCI-H522 lung, in the experiment on HCT-15 colon, with A549 NSCLC, with 786-0 renal and in the experiment with COLO 205 colon was more than 100 µM throughout. Further, the TGI with LOX IMVI melanoma and with MDA-MB-435 was more than 100 µM in each case.
Consider `CC1=NNC(=O)[C@H]2[C@H]1CCC1[C@@H]2CC[C@]2(C)[C@@H](O)CC[C@@H]12` (stereo not given in full), for which the TGI in the experiment on UACC-62 melanoma, with UO-31 renal, in the experiment on SNB-75 CNS, in the experiment with NCI-H226 lung, with A498 renal and with OVCAR-8 ovarian was more than 100 µM each time. Besides, the TGI with SF-295 CNS, with BT-549 breast, with CCRF-CEM leukemia, in the experiment with OVCAR-3 ovarian, in the experiment on MALME-3M melanoma and with ACHN renal was more than 100 µM each time. For the same molecule, the TGI with NCI/ADR-RES ovarian, in the experiment on NCI-H522 lung, with HCT-15 colon, in the experiment with A549 NSCLC, in the experiment with 786-0 renal and with COLO 205 colon was more than 100 µM throughout. Further, the TGI in the experiment with LOX IMVI melanoma and in the experiment on MDA-MB-435 was more than 100 µM in each case.
With `C/C(=N\Nc1nc2ccccc2n1C)c1ccc2ccccc2n1`, the TGI with UACC-62 melanoma was 9.79 µM; in the experiment with UO-31 renal, 11.8 µM; with SNB-75 CNS, 46.4 µM; in the experiment with NCI-H226 lung, 6.83 µM; in the experiment with A498 renal, 15.6 µM; in the experiment with OVCAR-8 ovarian it was more than 100 µM. The TGI with SF-295 CNS was 10.5 µM; in the experiment with BT-549 breast, more than 59.6 µM; in the experiment with CCRF-CEM leukemia, 1.67 µM; in the experiment with OVCAR-3 ovarian, 0.213 µM; in the experiment on MALME-3M melanoma, 16.3 µM; with ACHN renal, more than 54.5 µM. In addition, the TGI is 6.71 µM in the experiment on NCI/ADR-RES ovarian; 19.6 µM in the experiment with NCI-H522 lung; more than 75.7 µM in the experiment on HCT-15 colon; 16.1 µM with A549 NSCLC; 11.5 µM in the experiment with 786-0 renal; more than 100 µM in the experiment on COLO 205 colon. For the same molecule, the TGI turned out to be 16.6 µM with LOX IMVI melanoma and 42.7 µM in the experiment with MDA-MB-435.
